According to US11254987B2, “PD-L1 promoter methylation in cancer” (Genentech, Inc., priority 2015, dated 2022):

What was measured:
Assay type in all cases: cell-based, human
[1] = system: PD-L1 protein expression; assay: Surface PD-L1 protein expression by FACS after IFNg treatment (FIG. 4A)
Method: (§1) NSCLC cell lines were procured from American Type Cell Culture (ATCC) or academic sources and cultured in RPMI 1640 medium supplemented with 10% fetal bovine serum (FBS) and 2 mM L-glutamine. Cells were detached for splitting and/or experimental analysis following a PBS wash and incubation with Accutase detachment medium (Sigma). Cells were treated with 0.1 mM trichostatin A (“TSA,” Sigma) and/or 1 ng/mL interferon gamma (IFNγ) for 24 hours and 1 mM 5-azacitidine-dC (5-aza-dC, Sigma), for 3 days qd (i.e., once a day) or 6 days q2d (i.e., every other day).
For FACS analysis, cells were detached then washed twice in FBS Staining Buffer (BD Biosciences). Cells were then stained with either PE-conjugated anti-human PD-L1 or isotype control (BD Biosciences) and then washed and analyzed on the FACSCanto II Analyzer (BD Biosciences).
PD-L1 protein expression loosely correlated with RNA expression in this subset of cell lines, both at baseline and following IFNg stimulation. […] In the A427 cell line, PD-L1 protein expression remained low. In the H292 and H358 cell lines, PD-L1 protein expression increased 3-4 fold, and in H322T, PD-L1 protein expression increased more than 48-fold as compared to baseline levels. […] As discussed above, baseline levels of PD-L1 protein in H322T were low.

[2] = system: PD-L1 expression; assay: PD-L1 expression after IFNg and/or STAT1 and STAT3 siRNA knockdown in A427 and H358 (FIG. 4C); settings: H358 (unmethylated)
Method: (§2) Protein lysates were generated using Cell Extraction Buffer (Life Technologies), supplemented with SigmaFAST Protease Inhibitor Tablets (Sigma) and Phosphatase Inhibitor Cocktail 1 and 2 (Sigma). Lysates centrifuged at 20,000×g for 10 minutes at 4° C., and the supernatants were then removed for analysis by Western Blot (WB). Samples were treated with NuPage Novex LDS and SRA Buffers (Life Technologies) and loaded onto a Bis-Tris Gel (Life Technologies) alongside SeeBlue Plus2 molecular weight standard (Life Technologies). Gels were transferred to nitrocellulose membranes using the iBlot system (Life Technologies) and then blocked with Odyssey Blocking Buffer (LI-COR) for 1 hour at room temperature. Gels were stained with antibodies against human PD-L1 (in-house), β-actin (Sigma); p/t STAT1, p-STAT3-Y705, p-STAT3-5727, and t-STAT3 (all Cell Signaling) diluted in Odyssey Blocking Buffer+0.01% Tween-20. Primary antibodies were detected secondary antibodies from LI-COR in Odyssey Blocking Buffer+0.01% Tween-20+0.001% SDS and analyzed on the Odyssey CLx system (LI-COR).
Next, the relationship between PD-L1 promoter methylation and the IFNg/JAK/STAT pathway was investigated in A427 and H358 using siRNA. […]

[3] = system: STAT3; assay: Western blot of IFNg/JAK/STAT signaling pathway: STAT3
Method: as §2
Next, western blots were performed to determine whether the IFNg/JAK/STAT signaling pathway plays a role in the IFNg-mediated induction of PD-L1 transcript and protein levels in A427, H322T, H292, and H358. Briefly, cells from A427, H322T, H292, and H358 were either (a) untreated; (b) treated with IFNg for 30 minutes; or (c) treated with IFNg for 24 hours. The cells were then processed into protein lysates and run out on gels, blotted and probed with the following antibodies: (1) anti-phospho-STAT1; (2) anti-total-STAT1: (3) anti-phospho-STAT3-Y705; (4) anti-phospho-STAT3-S727; (5) anti-total-STAT3; and (6) β-actin (loading control). […] STAT3 was further activated by the mTOR and MAPK pathways at S727.
Next, the relationship between PD-L1 promoter methylation and the IFNg/JAK/STAT pathway was investigated in A427 and H358 using siRNA. […] In order to determine which STAT was most crucial for PD-L1 expression in the context of methylation, cells from each cell line were dosed with (1) no siRNA; (2) Scrambled control; (3) siSTAT1; (4) siSTAT3; (5) IFNg, or (6) siSTAT1, siSTAT3, and IFNg.

[4] = system: PD-L1 RNA expression; assay: PD-L1 RNA expression by qRT-PCR in treated NSCLC cell lines (FIG. 3, 4A)
Method: as §1
Buffer RLT Plus (Qiagen) was used to lyse the cells for RNA and DNA extraction from the same lysate using the AllPrep DNA/RNA Mini Kit (Qiagen). RNA expression was analyzed by microarray on the GeneChip Human Genome U133 Plus 2.0 Array (Affymetrix) by Asuragen, Inc, and by qPCR using TaqMan Gene Expression Assays (Life Technologies). Data was analyzed using Genomics Suite (Partek), Spotfire (TIBCO), JMP (SAS), and IPA (Ingenuity). DNA was analyzed on the INFINIUM® HumanMethylation450 BeadChip (Illumina). DNA was bisulfite-modified using the Zymo DNA Gold Methylation kit (Zymo Research) and amplified with bisulfite specific sequencing primers targeting the CD274 promoter region. PCR products were TA-subcloned and sequenced using standard methods (ABI). ABI sequence files were analyzed using BIQ Analyzer software (C. Bock).
Cells from each of the cell lines were exposed to one of five conditions: (1) no treatment; (2) treatment with 1 mM 5-azacitidine-dC (5-aza-dC, a DNA demethylation agent); (3) treatment with 0.1 mM trichostatin A (TSA, a class I and class II mammalian histone […]); (4) treatment with 1 ng/mL interferon gamma (IFNg); or (5) treatment with a combination of 5-aza-dC, TSA, and IFNg. PD-L1 RNA expression was then measured by qRT-PCR.

[5] = system: STAT1; assay: Western blot of IFNg/JAK/STAT signaling pathway: STAT1
Method: as §2
Next, western blots were performed to determine whether the IFNg/JAK/STAT signaling pathway plays a role in the IFNg-mediated induction of PD-L1 transcript and protein levels in A427, H322T, H292, and H358. […]

[6] = A427 following stimulation with IFNg (FIG. 4C)

interferon gamma [IFNg, interferon gamma, used at 1 ng/mL to stimulate cells]
PD-L1 protein expression ([1]; A427 following IFNg treatment): remained low | PD-L1 protein expression increase ([1]; H292 following IFNg treatment, vs baseline): 3-4 fold | PD-L1 protein expression increase ([1]; H322T following IFNg treatment, compared to baseline levels): more than 48 fold | PD-L1 protein expression increase ([1]; H358 following IFNg treatment, vs baseline): 3-4 fold | surface PD-L1 protein levels ([1]; all four cell lines (A427, H322T, H292, H358) following IFNg treatment): increased | PD-L1 expression [2]: further induced | induction of activated STAT3 [3, 6]: strong induction | p-STAT3-Y705 ([3]; H292, following 30 min IFNg treatment): constitutively activated | p-STAT3-5727 activation ([3]; H358, before and after stimulation, early and late timepoints): did not show p-STAT3-5727 activation | p-STAT3-Y705 ([3]; H358, by 24 hrs following IFNg stimulation): lost | Activation of the JAK/STAT signaling pathway ([3]; all cell lines except H358, by 24 hrs IFNg): observed | PD-L1 RNA expression ([4]; A427 (high methylation) after IFNg stimulation): 0.012 2^−DCt | PD-L1 RNA induction ([4]; A427, H322T, H292 and H358 stimulated with IFNg): increases | PD-L1 RNA expression ([4]; H292 (low methylation) after IFNg stimulation): 0.102 2^−DCt | PD-L1 RNA expression ([4]; H322T (medium methylation) after IFNg stimulation, baseline 0.018): 1.356 2^−DCt | PD-L1 RNA expression ([4]; H358 (low methylation, high baseline) after IFNg stimulation): no significant changes | induction of activated STAT1 [5, 6]: strong induction | p-STAT1 activation ([5]; all four cell lines (A427, H322T, H292, H358) following IFNg stimulation): robust
